Measured values published in patent US6949521B2, “Therapeutic azide compounds” (priority 1995, dated 2005).
Read-outs that look alike come from different tables or passages of the source. Blank lines part the entries; values can stand above or below the molecule they belong to.

Key:
[1] = in vitro; settings: female, NIH Swiss, mouse, liver homogenate
Description: (§4) All the solvents were of HPLC grade. Chromatography was performed on an Altech Hypersil ODS C18 (5 μm particle size, 4.5×150 mm, Altech Associates, Deerfield, Ill.).
(§5) In vitro metabolism study. Female NIH Swiss mice (Harland Sprague-Dawley, Indianapolis, Ind.) were sacrificed and serum, liver and brain tissues were collected before each experiment. Serum was collected from several animals. The brain and liver were washed in normal saline at 4° C., wiped and then weighed. […] Samples and blanks of volume 400 μL were collected at 0, 5, 15, and 30 minutes and at 1, 2, 3, 4 and 5 hours.
(§6) To measure the analyte concentrations in serum, liver or brain homogenate, 400 μL of sample was mixed with 50 μL of internal standard (AzdU, 5 μg/mL) and 0.7 mL of acetonitrile. After centrifugation, the supernatant was decanted to another tube and treated with anhydrous Na2SO4, then vortexed for one minute and centrifuged again. The organic layer was separated and evaporated under nitrogen stream at room temperature. The residue was reconstituted in mobile phase A and filtered through MPS-I micropartition system (3KD membranes (Amicon Inc., Beverly, Mass.) by centrifugation for 50 minutes at 2000 rpm to further clean-up the samples. 100 μL of filtrate was injected for analysis.

[2] = In vitro metabolism study of 6-AAP and ara-A in mouse liver homogenate, serum and brain homogenate
Description: as §4, §5, §6

[3] = In vitro stability in PBS, mouse serum, brain and liver homogenate (FAAddP, FMAddA); type: in vitro ADME; settings: for stability in phosphate buffer saline: PBS pH 7.4, 37° C.; for half-life at 70 μM: mouse
Description: In vitro stability in serum, brain and liver homogenate. Liver and brain homogenate were prepared in a 1: 1 (g:mL) ratio with isotonic 0.05 M phosphate buffer, pH 7.4. FAAddP (70 μM) or FMAddA (50 μM) were added to the mouse serum, the brain homogenate or the liver homogenate and incubated in a shaker water bath at 37° C. Aliquots of 100 μL were removed at time zero and at selected times for up to 6 hours. Concentrations of the compounds were determined by HPLC.
(§1) Analytical Methodology. […] The brain or liver tissue were homogenized in a 1:1 (g:mL) ratio with ice cold isotonic 0.05 M phosphate buffer, pH 7.4. […] Acetonitrile (600 μL) containing 0.1% acetic acid was added while vortexing to precipitate proteins. The tubes were centrifuged at 3,000 rpm for five minutes and the supernatant was transferred to a clean tube. Supernatant was evaporated to dryness under a stream of nitrogen gas at room temperature. The residual film was reconstituted in 110 μL of mobile phase and 50 μL was injected onto the HPLC.
(§2) Chromatographic separations were performed using a Hypersil ODS column 150×4.5 mm, 5 μm particle size (Alltech Associates, Deerfield, Ill.) preceded by a guard column packed with 30-40 μm pellicular Perisorb RP-18. Mobile phase flow rate was 2 mL/min. For the analysis of FAAddP and 2′-F-ara-ddA, the mobile phase consisted of 7% (v/v) acetonitrile in 80 mM sodium acetate, pH 5.0. […] Eluants were monitored at a UV wavelength of 260 nm.
(§3) Nucleoside standards ranging from 0.04 μg/mL to 100 μg/mL, prepared in blank PBS, serum, brain homogenate and liver homogenate were treated the same as unknown samples. Samples with nucleoside concentrations greater than 100 μg/mL were diluted with the appropriate blank matrix.
Data analysis in vitro studies.

[4] = target: T1, adenosine deaminase (type VII from calf intestinal mucosa) (Bos taurus, UniProt P56658); experiment: Deamination by adenosine deaminase (2′-fluoronucleosides); type: biochemical
T1 construct: type VII from calf intestinal mucosa; purchased Sigma Chemical Co., St. Louis, Mo. type VII; host or cells: calf intestinal mucosa
T1 sequence (P56658 1-363): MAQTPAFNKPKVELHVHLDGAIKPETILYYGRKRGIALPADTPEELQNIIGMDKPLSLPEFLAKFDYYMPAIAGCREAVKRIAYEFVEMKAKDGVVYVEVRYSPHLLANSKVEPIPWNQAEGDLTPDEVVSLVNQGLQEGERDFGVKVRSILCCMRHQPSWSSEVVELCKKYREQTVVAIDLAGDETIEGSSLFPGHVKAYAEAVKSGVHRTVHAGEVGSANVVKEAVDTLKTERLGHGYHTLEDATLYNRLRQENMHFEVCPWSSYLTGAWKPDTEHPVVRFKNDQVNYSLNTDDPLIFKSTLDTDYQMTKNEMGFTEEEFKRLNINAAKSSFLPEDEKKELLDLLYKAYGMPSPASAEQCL
Description: Deamination of 2′-F-ara-ddA and FMAddA by adenosine deaminase. Samples (1.5 mL) of 2′-F-ara-ddA (80 μM) or FMAddA (50 μM) were prepared in 0.05 M isotonic phosphate buffer, pH 7.4, and placed into a shaking water bath at 37° C. The reaction was initiated by the addition of 15 μL of adenosine deaminase (type VII from calf intestinal mucosa, Sigma Chemical Co., St. Louis, Mo.). The final activity in the incubation media was 0.05 U/mL for 2′-F-ara-ddA and 1.0 U/mL for FMAddA. At specified time intervals, aliquots of 100 μL were withdrawn for the determination of 2′-F-ara-ddA and 2′-F-ara-ddI or FMAddA and 2′-F-ara-ddI concentrations.
Mobile phase flow rate was 2 mL/min.

[5] = in vivo; settings: for AUC: AUC0-τ; for half-life: t½
Description: Animal studies. […] Animal studies were approved by the University of Georgia Animal Care and Use Committee and conducted in accordance with guidelines established by the Animal Welfare Act and the National Institutes of Health Guide for the Care and Use of Laboratory Animals. […] Animals were acclimatized to this environment for one week prior to the experiments.
At selected time intervals, mice (three animals per each time point) were anesthetized with diethyl ether and sacrificed by exsanguination via left ventricular heart puncture. Serum was harvested from blood collected. The brain was excised, rinsed with normal saline, blotted dry and weighed.
as §1, §2, §3
Data analysis in vivo studies. Nucleoside concentration as a function of time data were analyzed by a non-compartmental technique. […] Relative brain exposure (re) was calculated from AUCbrain/AUCserum.

[6] = test system: HIV-1; settings: relative to parent compounds ddA, ddI; cited from earlier work
[7] = test system: microsomal fraction of the human liver homogenate; experiment: Azido reduction assay
Description: Briefly, incubation mixtures contained either 1.5 mg of human liver fraction protein (homogenate or supernatant fractions following centrifugation) or 1.5 mg microsomal protein, 5.0 mM MgCl2, 6.0 mM NADPH and 0.4 mg/mL of 6-AAP in 0.1 M phosphate buffer saline at pH 7.4 (final volume of 0.2 mL). The reaction was initiated by adding NADPH and conducted at 37° C. for 60 minutes under nitrogen. Reactions were terminated by heating at 100° C. for 30 seconds and the proteins were removed by centrifugation at 14,000 g for six minutes. Aliquots (100 μL) were then analyzed for nucleosides by HPLC. Control incubations were performed in the absence of protein.
Inhibition of azido reduction assay: Assays were performed using 1.5 mg microsomal protein as described above following either a 45 second exposure to carbon monoxide or a 5 minute pre-incubation with 1 mM metyrapone prior to the addition of NADPH.

[8] = in vivo; cited from earlier work
[9] = 6-AAP incubated in mouse liver homogenate
[10] = female, NIH-Swiss, mouse, in vivo, iv, 55 mg/kg
[11] = female, NIH-Swiss, mouse, in vivo, po, 55 mg/kg

half-life at 100 μg/mL [1]: 2.24 h
Kel [2, 9]: 0.26 h⁻¹
T1/2 [2, 9]: 2.45 h
Kel ([2]; Ara-A incubated in mouse liver homogenate): 0.31 h⁻¹
SMILES: O=c1[nH]cnc2c1ncn2[C@@H]1O[C@H](CO)[C@@H](O)[C@@H]1O [Ara-H, 9-(β-D-arabinofuranosyl)hypoxanthine]

stability in phosphate buffer saline [3]: stable
half-life in brain homogenate ([3]; mouse brain homogenate): stable
t1/2 in liver homogenate (metabolized to 2′-F-ara-ddI) ([3]; mouse liver homogenate): 9.1 h
degradation half-life in mouse serum ([3]; mouse serum, 37° C.): stable
t½ upon addition of adenosine deaminase to PBS ([4]; PBS + adenosine deaminase): 0.46 h
t1/2 upon addition of adenosine deaminase to brain homogenate ([4]; brain homogenate + adenosine deaminase): 3.7 h
intravenously administered dose of prodrug converted to 2′-F-ara-ddI ([5]; mouse, in vivo): 5.6%
Steady-state volume of distribution ([5]; mouse, in vivo, iv): 0.79 L/kg
Total clearance ([5]; mouse, in vivo, iv): 32.2 mL/min/kg
SMILES: CNc1ncnc2c1ncn2[C@@H]1O[C@H](CO)C[C@@H]1F [FMAddA, N^6-methyl-2′,3′-dideoxy-2′-fluoro-β-D-arabinofuranosyladenine]
extent of conversion to 2′-F-ara-ddI upon addition of adenosine deaminase ([4]; PBS and brain homogenate + adenosine deaminase): virtually all of the prodrug was converted

SMILES: Nc1ncnc2c1ncn2[C@@H]1O[C@H](CO)C[C@@H]1F [2′-F-ara-ddA, 2′-fluoro-2′,3′-dideoxyadenosine]
AUC0-τ [5, 10]: 3.9 µM·h
AUC [5, 10]: 3 µM·h
AUC [5, 11]: 0.8 µM·h
half-life [5, 11]: 1.74 h
AUC/Dose ([5]; mice, after FAAddP 55 mg/kg iv, brain): 0.02 μM · h/μmol/kg
AUC/Dose ([5]; mice, after FAAddP 55 mg/kg iv, serum): 0.04 μM · h/μmol/kg
AUC/Dose ([5]; mice, after FAAddP 55 mg/kg oral, serum): 0.005 μM · h/μmol/kg
potency in protecting CD4+ATH8 cells from cytopathogenic effects of HIV-1 [6]: as potent as the parent compounds

stability in phosphate buffer saline [3]: stable
half-life at 70 μM ([3]; brain homogenate, pH 7.4, mouse brain homogenate, read-out: half-life in brain homogenate (converted)): 6.1 h
half-life at 70 μM ([3]; liver homogenate, pH 7.4, mouse liver homogenate, biphasic, after initial 45 minutes, read-out: t1/2 in liver homogenate, subsequent slower phase (converted)): 7.74 h
half-life at 70 μM ([3]; liver homogenate, pH 7.4, mouse liver homogenate, biphasic, initial phase, read-out: t1/2 in liver homogenate, initial 45 minutes (converted)): 0.48 h
half-life at 70 μM ([3]; mouse serum, 37° C., read-out: degradation half-life in mouse serum (converted)): 2.41 h
direct conversion to 2′-F-ara-ddI by adenosine deaminase ([4]; in vitro biotransformation): negligible rate
intravenously administered dose of prodrug converted to 2′-F-ara-ddI ([5]; female, NIH-Swiss, mouse, in vivo): Approximately 30%
clearance ([5]; female, NIH-Swiss, mouse, in vivo, iv): 18.7 mL/min/kg
t½ [5, 10]: 0.22 h
half-life [5, 10]: 0.22 h
AUC/Dose [5, 11]: 0.19 μM · h/μmol/kg
bioavailability [5, 11]: 19%
AUC [5, 11]: 34.2 µM·h
half-life [5, 11]: 1.53 h
SMILES: [N-]=[N+]=Nc1ncnc2c1ncn2C1OC(CO)CC1F [FAAddP, 6-azido-2′,3′-dideoxy-2′-fluoro-β-D-arabinofuranosylpurine]
azido reduction (metabolites formed) [7]: metabolized to 2′-F-ara-ddA and 2′-F-ara-ddI

SMILES: Nc1nc2c(ncn2COCCO)c(=O)[nH]1 [Acyclovir]
oral bioavailability [8]: 15-20%
